From ChEMBL document CHEMBL5465560, “Selectivity Literature for EUbOPEN Chemogenomic Library” (2024)

Experiments:
[1] = biological target: T1, Tyrosine-protein kinase ITK/TSK (Homo sapiens) (UniProt Q08881); assay: Selectivity interaction (Upstate Kinase Profiler service (Millipore)) EUB0000056c ITK; settings: at 1 µM
T1 sequence (whole entry): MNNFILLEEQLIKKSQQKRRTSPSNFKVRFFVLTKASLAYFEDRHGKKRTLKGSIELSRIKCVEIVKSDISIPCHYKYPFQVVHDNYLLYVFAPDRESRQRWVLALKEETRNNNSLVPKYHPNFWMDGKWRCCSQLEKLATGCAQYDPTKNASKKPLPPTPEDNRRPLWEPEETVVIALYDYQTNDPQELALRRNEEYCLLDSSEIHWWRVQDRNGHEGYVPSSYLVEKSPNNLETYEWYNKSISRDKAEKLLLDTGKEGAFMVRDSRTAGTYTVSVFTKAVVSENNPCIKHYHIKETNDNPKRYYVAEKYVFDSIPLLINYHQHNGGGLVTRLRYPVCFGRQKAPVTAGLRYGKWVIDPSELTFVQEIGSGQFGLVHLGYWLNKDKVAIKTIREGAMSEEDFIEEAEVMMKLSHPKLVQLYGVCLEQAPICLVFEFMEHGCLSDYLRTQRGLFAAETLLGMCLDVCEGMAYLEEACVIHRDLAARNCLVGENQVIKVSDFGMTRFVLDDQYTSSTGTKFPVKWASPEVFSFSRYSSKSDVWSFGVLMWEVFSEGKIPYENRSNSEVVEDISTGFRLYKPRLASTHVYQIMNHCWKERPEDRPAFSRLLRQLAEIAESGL

[2] = biological target: T2, Mitogen-activated protein kinase kinase kinase 19 (Homo sapiens) (UniProt Q56UN5); assay: Selectivity interaction (KinomeScan (DiscoverX)) EUB0000666a MAP3K19; settings: at 10 µM
T2 sequence (whole entry): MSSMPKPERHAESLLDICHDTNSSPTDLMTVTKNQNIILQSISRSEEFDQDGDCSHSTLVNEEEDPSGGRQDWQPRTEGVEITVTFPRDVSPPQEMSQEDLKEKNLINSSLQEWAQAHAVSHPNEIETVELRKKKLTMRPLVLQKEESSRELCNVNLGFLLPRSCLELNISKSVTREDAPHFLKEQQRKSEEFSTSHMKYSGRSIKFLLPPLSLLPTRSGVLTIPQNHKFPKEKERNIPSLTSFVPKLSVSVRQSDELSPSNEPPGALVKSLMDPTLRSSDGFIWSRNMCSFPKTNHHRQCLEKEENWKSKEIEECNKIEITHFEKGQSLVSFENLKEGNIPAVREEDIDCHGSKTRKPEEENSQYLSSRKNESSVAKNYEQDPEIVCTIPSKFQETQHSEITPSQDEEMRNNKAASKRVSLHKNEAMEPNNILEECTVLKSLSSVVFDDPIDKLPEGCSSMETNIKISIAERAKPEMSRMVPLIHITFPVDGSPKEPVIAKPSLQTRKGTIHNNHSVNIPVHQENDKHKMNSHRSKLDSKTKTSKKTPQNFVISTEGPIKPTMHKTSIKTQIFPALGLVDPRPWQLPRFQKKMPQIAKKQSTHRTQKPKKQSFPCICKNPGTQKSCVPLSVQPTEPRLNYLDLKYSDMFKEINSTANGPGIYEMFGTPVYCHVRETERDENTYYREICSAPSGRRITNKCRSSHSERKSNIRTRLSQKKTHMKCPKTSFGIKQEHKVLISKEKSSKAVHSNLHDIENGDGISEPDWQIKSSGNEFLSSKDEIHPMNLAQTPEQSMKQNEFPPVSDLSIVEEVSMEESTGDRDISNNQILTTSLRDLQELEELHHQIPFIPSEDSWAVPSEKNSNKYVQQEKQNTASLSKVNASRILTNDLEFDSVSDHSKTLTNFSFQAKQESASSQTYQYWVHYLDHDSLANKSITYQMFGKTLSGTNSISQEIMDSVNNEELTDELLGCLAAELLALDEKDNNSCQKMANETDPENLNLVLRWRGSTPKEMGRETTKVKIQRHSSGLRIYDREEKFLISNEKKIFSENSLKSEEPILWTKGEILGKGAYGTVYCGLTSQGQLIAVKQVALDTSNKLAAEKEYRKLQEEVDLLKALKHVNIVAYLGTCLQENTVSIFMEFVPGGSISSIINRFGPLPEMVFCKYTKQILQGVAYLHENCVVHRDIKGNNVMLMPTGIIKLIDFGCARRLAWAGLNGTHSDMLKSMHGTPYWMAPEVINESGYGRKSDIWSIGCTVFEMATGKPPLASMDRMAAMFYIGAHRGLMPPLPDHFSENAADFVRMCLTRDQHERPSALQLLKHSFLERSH

[3] = biological target: T3, TGF-beta receptor type-1 (Homo sapiens) (UniProt P36897); assay: Selectivity interaction (KinomeScan (DiscoverX)) EUB0000695a TGFBR1; settings: at 100 nM
T3 sequence (whole entry): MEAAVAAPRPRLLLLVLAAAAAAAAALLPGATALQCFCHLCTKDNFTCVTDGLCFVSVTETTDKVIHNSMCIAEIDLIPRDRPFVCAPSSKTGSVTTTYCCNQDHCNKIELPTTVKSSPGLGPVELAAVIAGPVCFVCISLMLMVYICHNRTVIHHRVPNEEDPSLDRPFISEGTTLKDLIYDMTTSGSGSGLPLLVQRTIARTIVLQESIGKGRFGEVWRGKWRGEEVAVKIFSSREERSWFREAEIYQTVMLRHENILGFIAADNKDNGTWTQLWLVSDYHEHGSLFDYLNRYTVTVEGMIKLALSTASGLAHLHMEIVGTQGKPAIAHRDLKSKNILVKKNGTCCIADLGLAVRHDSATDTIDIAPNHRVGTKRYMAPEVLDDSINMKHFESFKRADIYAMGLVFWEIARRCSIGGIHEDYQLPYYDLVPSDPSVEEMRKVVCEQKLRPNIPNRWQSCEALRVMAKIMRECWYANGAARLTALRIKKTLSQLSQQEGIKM

[4] = biological target: T4, Dual specificity mitogen-activated protein kinase kinase 6 (Homo sapiens) (UniProt P52564); assay: Selectivity interaction (ActivX KiNativ screen (ex vivo kinase selectivity in human PBMCs)) EUB0001619a MAP2K6; format: cell-based; settings: PBMC, at 1 µM
T4 sequence (whole entry): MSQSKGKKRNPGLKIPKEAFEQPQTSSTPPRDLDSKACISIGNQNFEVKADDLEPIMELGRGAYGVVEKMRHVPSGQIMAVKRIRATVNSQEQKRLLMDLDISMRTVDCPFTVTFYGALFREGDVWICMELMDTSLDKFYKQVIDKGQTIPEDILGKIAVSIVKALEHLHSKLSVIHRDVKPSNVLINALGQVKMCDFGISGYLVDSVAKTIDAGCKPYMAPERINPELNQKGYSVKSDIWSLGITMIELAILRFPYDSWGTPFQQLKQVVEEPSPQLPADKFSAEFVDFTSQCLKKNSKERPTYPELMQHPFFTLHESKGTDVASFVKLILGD

[5] = biological target: Phosphatidylinositol 4-kinase alpha (Homo sapiens, UniProt P42356); assay: Selectivity interaction (ActivX KiNativ screen (ex vivo kinase selectivity in human PBMCs)) EUB0001619a PI4KA; format: cell-based; settings: PBMC, at 1 µM
Sequence of Phosphatidylinositol 4-kinase alpha (P42356 whole entry, looked up): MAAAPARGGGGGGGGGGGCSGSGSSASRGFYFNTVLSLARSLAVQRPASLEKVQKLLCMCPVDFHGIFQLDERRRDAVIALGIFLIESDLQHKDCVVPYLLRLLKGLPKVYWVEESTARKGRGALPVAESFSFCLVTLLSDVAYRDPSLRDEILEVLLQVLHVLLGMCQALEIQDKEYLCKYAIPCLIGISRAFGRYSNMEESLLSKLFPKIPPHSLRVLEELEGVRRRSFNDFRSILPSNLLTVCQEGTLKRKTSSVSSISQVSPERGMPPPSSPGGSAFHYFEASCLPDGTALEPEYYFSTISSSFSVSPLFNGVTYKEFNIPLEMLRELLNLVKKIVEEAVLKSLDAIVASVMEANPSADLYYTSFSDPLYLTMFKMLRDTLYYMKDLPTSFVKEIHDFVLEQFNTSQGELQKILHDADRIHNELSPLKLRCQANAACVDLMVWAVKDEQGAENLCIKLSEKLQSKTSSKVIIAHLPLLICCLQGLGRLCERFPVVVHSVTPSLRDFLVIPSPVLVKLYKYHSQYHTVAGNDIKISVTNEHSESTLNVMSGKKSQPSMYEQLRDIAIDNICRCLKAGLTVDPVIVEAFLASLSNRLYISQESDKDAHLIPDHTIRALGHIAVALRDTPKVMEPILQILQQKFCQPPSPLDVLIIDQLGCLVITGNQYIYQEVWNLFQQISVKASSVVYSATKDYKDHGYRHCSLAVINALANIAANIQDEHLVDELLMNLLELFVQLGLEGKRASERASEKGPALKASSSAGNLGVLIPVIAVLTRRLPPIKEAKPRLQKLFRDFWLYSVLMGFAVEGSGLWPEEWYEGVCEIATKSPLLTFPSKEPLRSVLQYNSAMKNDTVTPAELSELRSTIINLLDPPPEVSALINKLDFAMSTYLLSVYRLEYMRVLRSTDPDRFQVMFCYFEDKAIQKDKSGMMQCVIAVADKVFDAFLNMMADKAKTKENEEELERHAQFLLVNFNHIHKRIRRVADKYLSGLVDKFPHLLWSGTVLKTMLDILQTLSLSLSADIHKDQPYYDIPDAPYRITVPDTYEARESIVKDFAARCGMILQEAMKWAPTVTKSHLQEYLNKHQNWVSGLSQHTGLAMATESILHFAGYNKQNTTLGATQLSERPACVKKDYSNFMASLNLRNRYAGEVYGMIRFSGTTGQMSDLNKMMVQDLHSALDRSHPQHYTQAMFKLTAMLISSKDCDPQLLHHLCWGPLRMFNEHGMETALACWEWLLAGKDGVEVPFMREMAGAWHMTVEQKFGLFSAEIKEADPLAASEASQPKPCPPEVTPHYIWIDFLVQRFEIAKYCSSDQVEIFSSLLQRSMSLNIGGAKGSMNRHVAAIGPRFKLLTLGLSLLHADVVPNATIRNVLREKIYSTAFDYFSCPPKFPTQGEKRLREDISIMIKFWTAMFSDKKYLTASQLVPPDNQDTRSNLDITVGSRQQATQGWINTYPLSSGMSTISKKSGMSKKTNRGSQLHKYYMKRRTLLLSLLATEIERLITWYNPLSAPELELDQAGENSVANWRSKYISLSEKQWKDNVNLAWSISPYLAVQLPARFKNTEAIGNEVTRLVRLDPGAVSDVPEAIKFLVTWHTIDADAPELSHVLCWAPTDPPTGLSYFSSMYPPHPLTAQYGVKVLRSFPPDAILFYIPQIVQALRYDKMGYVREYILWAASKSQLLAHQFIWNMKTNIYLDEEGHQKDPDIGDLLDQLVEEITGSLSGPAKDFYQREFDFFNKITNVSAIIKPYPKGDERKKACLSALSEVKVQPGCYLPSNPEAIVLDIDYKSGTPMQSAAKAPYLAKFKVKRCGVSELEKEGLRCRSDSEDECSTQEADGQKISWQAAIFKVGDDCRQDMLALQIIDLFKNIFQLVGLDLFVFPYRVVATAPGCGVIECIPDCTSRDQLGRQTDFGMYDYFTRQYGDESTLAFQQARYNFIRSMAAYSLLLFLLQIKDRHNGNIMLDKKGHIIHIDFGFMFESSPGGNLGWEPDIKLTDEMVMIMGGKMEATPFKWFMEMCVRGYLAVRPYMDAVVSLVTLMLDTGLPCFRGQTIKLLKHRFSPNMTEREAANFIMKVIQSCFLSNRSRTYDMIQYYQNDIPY

Cc1ccc(-c2ccc3c(ccc4sc5c(c43)NC[C@@H](C)NC5=O)n2)cn1 gave a % of inhibition [1] of -1%.

Work on O=C(NOC[C@H](O)CO)c1ccc(F)c(F)c1Nc1ccc(I)cc1F yielded a % of control [2] of 100%.

Cc1cc(F)c(C(=O)Nc2cccc(-c3nncn3C(C)C)n2)cc1-n1cnc(C2CC2)c1 was tested, and the % of control [3] was 90%.

Compound N#Cc1cccc(-c2c[nH]c3ncnc(N4CCOCC4)c23)c1 has a % of inhibition [4] of 9% and a % of inhibition [5] of 6%.
